Data published in US8178506B2, “Oligomeric compounds and compositions for use in modulation of small non-coding RNAs” (Regulus Therapeutics Inc., priority 2003, dated 2012).
In the oligonucleotide strings, read from the 5' end, every base follows the letter of its sugar. An asterisk marks phosphorothioate; unmarked linkages are phosphodiester. Other units and linkages are bracketed, terminal groups are in braces. A string of capitals states the bases alone. e = 2'-O-(2-methoxyethyl) (MOE); [5mC] = 5-methylcytosine

Assays:
mir-15a pri-miRNA = mir-15a pri-miRNA expression in T47D cells (real-time RT-PCR); assay type: cell-based, human; settings: real-time RT-PCR
Description: The gapmer oligomeric compounds targeting the mir-15b and mir-15-a-1 mature miRNAs described above were also transfected into T47D cells according to standard procedures. In addition, uniform 2′-MOE and 2′-MOE gapmer oligomeric compounds targeting the mature mir-15a-1 and mir-15b miRNAs were also transfected into T47D cells, for analysis of their effects on mir-15a-1 and mir-15b pri-miRNA levels. The oligomeric compounds ISIS Number 327927 (SEQ ID NO: 345), a uniform 2′-MOE compound and ISIS Number 345391 (SEQ ID NO: 345), a 2′-MOE 5-10-7 gapmer compound, both target mir-15b. The oligomeric compounds ISIS Number 327951 (SEQ ID NO: 369), a uniform 2′-MOE compound, and ISIS Number 345411 (SEQ ID NO: 369), a 2′-MOE 5-10-7 gapmer compound, both target mir-15a-1. Oligomeric compounds ISIS Number 129686 ([…]; SEQ ID NO: 901), and ISIS Number 129691 ([…]; SEQ ID NO:902), both universal scrambled controls, as well as ISIS Number 116847 ([…]; SEQ ID NO: 844) targeting an unrelated gene, PTEN, were used as negative controls. ISIS Numbers 129686, 129691, and 116847 are phosphorothiated 2′-MOE 5-10-5 gapmers, and all cytosines are 5-methylcytosines. T47D cells (seeded in 12-well plates) were treated with these oligomeric compounds, and RNA was isolated from the treated cells by lysing in 1 mL TRIZOL™ (Invitrogen) and total RNA was prepared using the manufacturer's recommended protocols. To assess the effects of these compounds on expression of the mir-15a or mir-15b pri-miRNA molecules, real-time RT-PCR analysis was performed using either the primer/probe set specific for the mir-15a pri-miRNA molecule described above, or a primer probe set specific for the mir-15b pri-miRNA molecule: ISIS 339320 ([…]; SEQ ID NO: 903) was used as the forward primer for the mir-15b pri-miRNA, ISIS 339321 ([…] ACTGT; SEQ ID NO: 904) was used as the reverse primer for the mir-15b pri-miRNA, and ISIS 339322 ([…]; SEQ ID NO: 905) was used as the probe. Total RNA was quantified using RiboGreen™ RNA quantification reagent (Molecular Probes, Inc. Eugene, Oreg.), expression levels observed for each target were normalized to 5.8S rRNA, and values are expressed relative to the untreated control. Inhibition of expression of the mir15a or mir-15b pri-miRNA molecules upon treatment with these oligomeric compounds is was assessed and expressed as a percentage of RNA levels in untreated control cells.
Using the real-time RT-PCR methods described, the expression levels of the mir-15a pri-miRNA were compared in T47D cells treated with the nested series of uniform 2′-MOE oligomeric compounds, targeting and spanning the entire length of the mir-15a pri-miRNA. The region encompassing the mir-15a primary transcript (the complement of nucleotides 31603159 to 31603468 of GenBank Accession number NT—024524.13; AAATAATTATG […]) is incorporated herein as SEQ ID NO: 906. ISIS Number 356215 (SEQ ID NO: 879) targets a region flanking and immediately 5′ to the predicted 5′ Drosha cleavage site in the mir-15a pri-miRNA. ISIS Number 356218 (SEQ ID NO: 881) targets aregion in the loop of the mir-15a pri-miRNA. ISIS 356227 (SEQ ID NO: 883) targets a region flanking and immediately 3′ to the predicted 3′ Drosha cleavage site in the mir-15a pri-miRNA. Additionally, oligomeric compound ISIS 327951 (SEQ ID NO: 369), a uniform 2′-MOE compound targeting the mature mir-15a-1 miRNA, was tested for comparison. Oligomeric compounds ISIS 327901 (SEQ ID NO: 319) targeting the mature mir-143 miRNA; ISIS 129690, ([…]; SEQ ID NO: 907), a phosphorothioate 5-10-5 MOE gapmer used as a universal scrambled control; and ISIS 116847 ([…]; SEQ ID NO: 844), a uniform 5-10-52′-MOE gapmer targeting an unrelated gene, PTEN, were used as negative controls. Using the transfection methods previously described, T47D cells were treated with 100 nM of each of these oligomeric compounds. […]

mir-143 miRNA = assay: Northern blot of mature mir-143 in kidney of ob/ob mice; assay type: in vivo, mouse; settings: twice weekly at 25 mg/kg, saline = 100%
Procedure: In addition, Northern blot analyses were performed to quantitate the expression of mature mir-143 in kidney samples of ob/ob mice treated with oligomeric compounds of the present invention. The mir-143 specific DNA oligonucleotide probe (SEQ ID NO: 319) described above was used to detect expression levels of the mir-143 miRNA in ob/ob mice treated (twice weekly at 25 mg/kg) with ISIS Numbers 327901, the uniform 2′-MOE oligomeric compound, or ISIS Number 340927, the 5-10-7 gapmer compound, both targeted to mir-143, versus saline treated animals or animals treated with ISIS 342672 (SEQ ID NO: 789), a uniform 2′-MOE scrambled negative control oligomeric compound. Expression levels were normalized against the U6 RNA and the expression levels of saline treated animals were set at 100%. […] In kidney samples from mice treated with the gapmer oligomeric compound targeting mir-143, ISIS Number 340927, a 23% reduction in in vivo expression levels of the mature mir-143 miRNA was observed.

Substance | mir-15a pri-miRNA expression % UTC (mir-15a pri-miRNA) | decrease in in vivo expression levels of the mature mir-143 miRNA (mir-143 miRNA)
327901 (antisense eT*eG*eA*eG*e[5mC]*eT*eA*e[5mC]*eA*eG*eT*eG*e[5mC]*eT*eT*e[5mC]*eA*eT*e[5mC]*eT*e[5mC]*eA) [compound 327901] | 132 % UTC | –
327951 (antisense e[5mC]*eA*e[5mC]*eA*eA*eA*e[5mC]*e[5mC]*eA*eT*eT*eA*eT*eG*eT*eG*e[5mC]*eT*eG*e[5mC]*eT*eA) [compound 327951] | 713 % UTC | –
TGAGCTACAGTGCTTCATCTCA [ISIS 327901] (chemistry not given here) [uniform 2′-MOE PS; targets mir-143] | – | ~40%
TGAGCTACAGTGCTTCATCTCA [ISIS 340927] (chemistry not given here) [5-10-7 2′-MOE gapmer PS; targets mature mir-143] | – | 23%
